Measurements: ChEMBL document CHEMBL4184310, “Structure-based design and structure-activity relationships of 1,2,3,4-tetrahydroisoquinoline derivatives as potential PDE4 inhibitors” (Bioorg Med Chem Lett, 2018)
Values belong to the compound of their own block, whether it stands above or below them.

Tests used:
[1] = target: T1, cGMP-dependent 3',5'-cyclic phosphodiesterase (Homo sapiens, UniProt O00408); assay: Inhibition of human PDE2A
[2] = target: T2, Dual specificity calcium/calmodulin-dependent 3',5'-cyclic nucleotide phosphodiesterase 1A (Homo sapiens, UniProt P54750); assay: Inhibition of human PDE1A
T2 sequence (P54750 whole entry): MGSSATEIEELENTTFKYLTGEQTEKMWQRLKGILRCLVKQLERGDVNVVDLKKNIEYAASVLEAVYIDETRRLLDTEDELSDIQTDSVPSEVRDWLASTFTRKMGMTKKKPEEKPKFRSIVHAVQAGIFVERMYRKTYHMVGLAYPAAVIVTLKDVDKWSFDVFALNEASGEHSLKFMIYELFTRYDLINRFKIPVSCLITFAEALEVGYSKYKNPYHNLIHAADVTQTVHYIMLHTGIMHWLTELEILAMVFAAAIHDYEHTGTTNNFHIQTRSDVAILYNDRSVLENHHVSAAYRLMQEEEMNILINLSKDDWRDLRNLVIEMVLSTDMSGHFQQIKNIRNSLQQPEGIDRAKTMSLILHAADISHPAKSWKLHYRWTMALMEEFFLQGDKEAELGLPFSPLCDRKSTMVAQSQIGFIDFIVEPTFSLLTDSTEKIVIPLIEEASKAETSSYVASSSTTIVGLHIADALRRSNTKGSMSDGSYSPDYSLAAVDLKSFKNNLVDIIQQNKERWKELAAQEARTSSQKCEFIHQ

[3] = target: T3, cAMP and cAMP-inhibited cGMP 3',5'-cyclic phosphodiesterase 10A (Homo sapiens, UniProt Q9Y233); assay: Inhibition of human PDE10A2 at 50 uM relative to control
T3 sequence (Q9Y233 whole entry): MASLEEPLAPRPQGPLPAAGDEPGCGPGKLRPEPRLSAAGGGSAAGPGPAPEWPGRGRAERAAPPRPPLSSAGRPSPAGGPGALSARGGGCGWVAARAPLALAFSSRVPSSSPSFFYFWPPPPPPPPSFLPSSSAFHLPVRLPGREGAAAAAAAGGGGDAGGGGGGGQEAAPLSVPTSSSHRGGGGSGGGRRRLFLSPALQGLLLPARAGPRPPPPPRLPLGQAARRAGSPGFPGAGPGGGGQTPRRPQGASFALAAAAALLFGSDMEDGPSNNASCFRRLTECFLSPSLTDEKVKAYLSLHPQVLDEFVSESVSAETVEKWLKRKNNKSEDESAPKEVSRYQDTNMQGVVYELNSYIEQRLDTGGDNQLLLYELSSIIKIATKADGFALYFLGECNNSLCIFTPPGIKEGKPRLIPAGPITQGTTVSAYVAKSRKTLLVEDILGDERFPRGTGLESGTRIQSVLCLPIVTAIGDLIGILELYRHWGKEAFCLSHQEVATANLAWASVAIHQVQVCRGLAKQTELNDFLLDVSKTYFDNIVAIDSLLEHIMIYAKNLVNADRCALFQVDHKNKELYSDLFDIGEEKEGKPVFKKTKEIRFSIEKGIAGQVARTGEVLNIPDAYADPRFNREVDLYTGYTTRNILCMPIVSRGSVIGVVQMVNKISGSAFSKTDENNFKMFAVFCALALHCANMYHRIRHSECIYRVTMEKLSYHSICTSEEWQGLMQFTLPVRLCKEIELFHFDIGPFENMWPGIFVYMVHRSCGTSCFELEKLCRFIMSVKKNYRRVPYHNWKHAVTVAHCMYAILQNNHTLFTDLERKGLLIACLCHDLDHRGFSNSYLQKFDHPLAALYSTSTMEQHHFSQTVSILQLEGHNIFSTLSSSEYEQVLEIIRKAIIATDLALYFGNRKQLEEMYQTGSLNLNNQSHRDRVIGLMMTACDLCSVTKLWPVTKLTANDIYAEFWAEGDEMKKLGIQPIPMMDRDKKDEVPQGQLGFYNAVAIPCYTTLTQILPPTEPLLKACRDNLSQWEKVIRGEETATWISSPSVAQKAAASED

[4] = target: T4, Dual 3',5'-cyclic-AMP and -GMP phosphodiesterase 11A (Homo sapiens, UniProt Q9HCR9); assay: Inhibition of human PDE11A at 50 uM relative to control
[5] = target: T5, High affinity cAMP-specific and IBMX-insensitive 3',5'-cyclic phosphodiesterase 8A (Homo sapiens, UniProt O60658); assay: Inhibition of human PDE8A1 at 50 uM relative to control
T5 sequence (O60658 whole entry): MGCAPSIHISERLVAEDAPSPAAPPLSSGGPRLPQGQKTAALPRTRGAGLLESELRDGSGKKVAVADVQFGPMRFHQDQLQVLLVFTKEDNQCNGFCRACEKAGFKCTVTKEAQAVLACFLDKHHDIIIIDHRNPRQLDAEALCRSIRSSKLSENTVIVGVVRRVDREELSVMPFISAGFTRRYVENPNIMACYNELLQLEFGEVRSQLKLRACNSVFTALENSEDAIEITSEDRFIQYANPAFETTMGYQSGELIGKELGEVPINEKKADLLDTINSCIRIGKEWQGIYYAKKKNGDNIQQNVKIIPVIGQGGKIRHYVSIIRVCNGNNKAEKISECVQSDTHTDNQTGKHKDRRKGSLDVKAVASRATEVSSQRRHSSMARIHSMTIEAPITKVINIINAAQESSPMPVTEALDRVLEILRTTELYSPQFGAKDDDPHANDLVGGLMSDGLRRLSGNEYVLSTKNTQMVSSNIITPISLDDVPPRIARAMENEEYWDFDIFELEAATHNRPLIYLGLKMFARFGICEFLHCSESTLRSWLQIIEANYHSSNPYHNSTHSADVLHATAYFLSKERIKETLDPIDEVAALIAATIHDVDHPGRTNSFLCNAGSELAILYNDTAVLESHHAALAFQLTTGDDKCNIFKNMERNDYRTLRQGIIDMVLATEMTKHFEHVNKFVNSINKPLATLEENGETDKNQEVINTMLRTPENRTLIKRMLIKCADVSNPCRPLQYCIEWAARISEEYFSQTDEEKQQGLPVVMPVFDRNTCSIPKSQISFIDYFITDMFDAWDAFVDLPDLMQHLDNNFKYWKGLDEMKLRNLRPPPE

[6] = target: T6, High affinity cGMP-specific 3',5'-cyclic phosphodiesterase 9A (Homo sapiens, UniProt O76083); assay: Inhibition of human PDE9A2 at 50 uM relative to control
[7] = target: T7, High affinity 3',5'-cyclic-AMP phosphodiesterase 7A (Homo sapiens, UniProt Q13946); assay: Inhibition of human PDE7A at 50 uM relative to control
[8] = target: T8, Cone cGMP-specific 3',5'-cyclic phosphodiesterase subunit alpha' (Homo sapiens, UniProt P51160); assay: Inhibition of human PDE6C at 50 uM relative to control
[9] = target: T9, cGMP-specific 3',5'-cyclic phosphodiesterase (Homo sapiens, UniProt O76074); assay: Inhibition of human PDE5A at 50 uM relative to control
[10] = target: T10, cGMP-inhibited 3',5'-cyclic phosphodiesterase 3B (Homo sapiens, UniProt Q13370); assay: Inhibition of human PDE3B at 50 uM relative to control
[11] = target: T1, cGMP-dependent 3',5'-cyclic phosphodiesterase; assay: Inhibition of human PDE2A at 50 uM relative to control
[12] = target: T2, Dual specificity calcium/calmodulin-dependent 3',5'-cyclic nucleotide phosphodiesterase 1A; assay: Inhibition of human PDE1A at 50 uM relative to control
Rattus norvegicus = assay: Anti-inflammatory activity in Sprague-Dawley rat model of LPS-induced asthma/COPD assessed as inhibition of neutrophilia in BALF at 10 mg/kg, po administered 30 mins prior to LPS challenge for 40 mins relative to control; assay type: functional
Mus musculus = assay: Anti-inflammatory activity in Swiss albino mouse model of sepsis assessed as inhibition of LPS-induced TNFalpha release at 10 mg/kg, po administered 30 mins prior to LPS challenge for 90 mins by ELISA relative to control; assay type: functional
[13] = Inhibition of PDE4 in human PBMC assessed as reduction in LPS-stimulated TNFalpha release preincubated for 30 mins followed by LPS stimulation for 18 hrs by TR-FRET assay; assay type: cell-based
[14] = target: 3',5'-cyclic-AMP phosphodiesterase 4D (Homo sapiens, UniProt Q08499); assay: Inhibition of human U937 cells-derived PDE4D using [3H]-cAMP as substrate after 30 mins
Sequence of 3',5'-cyclic-AMP phosphodiesterase 4D (Q08499 whole entry): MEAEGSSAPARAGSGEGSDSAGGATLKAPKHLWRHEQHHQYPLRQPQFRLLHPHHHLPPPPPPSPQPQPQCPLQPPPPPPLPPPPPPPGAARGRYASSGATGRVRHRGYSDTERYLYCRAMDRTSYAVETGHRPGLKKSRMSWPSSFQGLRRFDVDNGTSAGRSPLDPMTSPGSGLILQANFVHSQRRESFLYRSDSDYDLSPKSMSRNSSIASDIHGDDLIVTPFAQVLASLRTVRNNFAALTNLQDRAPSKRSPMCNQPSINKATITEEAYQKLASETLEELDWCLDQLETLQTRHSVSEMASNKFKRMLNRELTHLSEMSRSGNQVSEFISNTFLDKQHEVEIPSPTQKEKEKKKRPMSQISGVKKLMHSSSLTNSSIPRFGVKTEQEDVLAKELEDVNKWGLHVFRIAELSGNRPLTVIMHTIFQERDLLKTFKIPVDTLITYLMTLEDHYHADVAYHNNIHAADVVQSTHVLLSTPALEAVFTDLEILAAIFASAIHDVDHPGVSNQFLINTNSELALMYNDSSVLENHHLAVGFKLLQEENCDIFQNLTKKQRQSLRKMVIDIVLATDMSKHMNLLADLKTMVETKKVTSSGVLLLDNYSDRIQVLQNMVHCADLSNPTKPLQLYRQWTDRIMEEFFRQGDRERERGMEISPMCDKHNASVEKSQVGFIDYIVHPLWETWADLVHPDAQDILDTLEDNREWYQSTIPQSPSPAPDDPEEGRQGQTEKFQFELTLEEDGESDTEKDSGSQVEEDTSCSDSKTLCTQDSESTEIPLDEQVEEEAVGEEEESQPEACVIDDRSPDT

[15] = target: 3',5'-cyclic-AMP phosphodiesterase 4B (Homo sapiens, UniProt Q07343); assay: Inhibition of human U937 cells-derived PDE4B using [3H]-cAMP as substrate after 30 mins
Sequence of 3',5'-cyclic-AMP phosphodiesterase 4B (Q07343 whole entry): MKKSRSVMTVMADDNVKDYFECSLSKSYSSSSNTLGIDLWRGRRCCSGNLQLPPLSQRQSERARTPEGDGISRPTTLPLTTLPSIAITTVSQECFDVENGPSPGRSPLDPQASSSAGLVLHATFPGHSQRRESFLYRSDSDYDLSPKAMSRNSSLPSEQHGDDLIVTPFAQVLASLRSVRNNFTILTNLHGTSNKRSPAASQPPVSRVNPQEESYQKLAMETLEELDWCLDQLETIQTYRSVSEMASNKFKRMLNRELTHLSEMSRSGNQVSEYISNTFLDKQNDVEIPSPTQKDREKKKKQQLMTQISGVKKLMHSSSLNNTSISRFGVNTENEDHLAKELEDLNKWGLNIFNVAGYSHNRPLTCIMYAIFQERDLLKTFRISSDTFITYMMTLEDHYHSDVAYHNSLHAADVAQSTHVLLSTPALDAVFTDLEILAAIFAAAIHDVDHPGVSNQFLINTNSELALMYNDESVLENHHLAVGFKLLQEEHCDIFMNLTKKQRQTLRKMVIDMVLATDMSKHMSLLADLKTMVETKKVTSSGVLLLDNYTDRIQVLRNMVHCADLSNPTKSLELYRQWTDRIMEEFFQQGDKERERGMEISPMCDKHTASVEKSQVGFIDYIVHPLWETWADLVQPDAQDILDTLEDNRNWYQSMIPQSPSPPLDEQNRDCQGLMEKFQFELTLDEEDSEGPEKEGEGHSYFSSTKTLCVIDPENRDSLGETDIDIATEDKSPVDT

[16] = target: T10, cGMP-inhibited 3',5'-cyclic phosphodiesterase 3B; assay: Inhibition of human PDE3B
[17] = target: T9, cGMP-specific 3',5'-cyclic phosphodiesterase; assay: Inhibition of human PDE5A
[18] = target: T8, Cone cGMP-specific 3',5'-cyclic phosphodiesterase subunit alpha'; assay: Inhibition of human PDE6C
[19] = target: T7, High affinity 3',5'-cyclic-AMP phosphodiesterase 7A; assay: Inhibition of human PDE7A
[20] = target: T5, High affinity cAMP-specific and IBMX-insensitive 3',5'-cyclic phosphodiesterase 8A; assay: Inhibition of human PDE8A1
[21] = target: T6, High affinity cGMP-specific 3',5'-cyclic phosphodiesterase 9A; assay: Inhibition of human PDE9A2
[22] = target: T3, cAMP and cAMP-inhibited cGMP 3',5'-cyclic phosphodiesterase 10A; assay: Inhibition of human PDE10A2
[23] = target: T4, Dual 3',5'-cyclic-AMP and -GMP phosphodiesterase 11A; assay: Inhibition of human PDE11A
[24] = Stability in rat plasma assessed as parent compound remaining after 4 hrs; assay type: ADME, cell-free; conditions: read-out: Stability
[25] = Stability in rat plasma assessed as parent compound remaining after 8 hrs; assay type: ADME, cell-free; conditions: read-out: Stability
Homo sapiens [26] = organism: Homo sapiens; assay: Selectivity ratio of IC50 for human U937 cells-derived PDE4D to IC50 for human U937 cells-derived PDE4B
Homo sapiens [27] = organism: Homo sapiens; assay: Potency index, ratio of rolipram IC50 to compound IC50 for inhibition of PDE4 in human PBMC

T1 sequence (O00408 whole entry): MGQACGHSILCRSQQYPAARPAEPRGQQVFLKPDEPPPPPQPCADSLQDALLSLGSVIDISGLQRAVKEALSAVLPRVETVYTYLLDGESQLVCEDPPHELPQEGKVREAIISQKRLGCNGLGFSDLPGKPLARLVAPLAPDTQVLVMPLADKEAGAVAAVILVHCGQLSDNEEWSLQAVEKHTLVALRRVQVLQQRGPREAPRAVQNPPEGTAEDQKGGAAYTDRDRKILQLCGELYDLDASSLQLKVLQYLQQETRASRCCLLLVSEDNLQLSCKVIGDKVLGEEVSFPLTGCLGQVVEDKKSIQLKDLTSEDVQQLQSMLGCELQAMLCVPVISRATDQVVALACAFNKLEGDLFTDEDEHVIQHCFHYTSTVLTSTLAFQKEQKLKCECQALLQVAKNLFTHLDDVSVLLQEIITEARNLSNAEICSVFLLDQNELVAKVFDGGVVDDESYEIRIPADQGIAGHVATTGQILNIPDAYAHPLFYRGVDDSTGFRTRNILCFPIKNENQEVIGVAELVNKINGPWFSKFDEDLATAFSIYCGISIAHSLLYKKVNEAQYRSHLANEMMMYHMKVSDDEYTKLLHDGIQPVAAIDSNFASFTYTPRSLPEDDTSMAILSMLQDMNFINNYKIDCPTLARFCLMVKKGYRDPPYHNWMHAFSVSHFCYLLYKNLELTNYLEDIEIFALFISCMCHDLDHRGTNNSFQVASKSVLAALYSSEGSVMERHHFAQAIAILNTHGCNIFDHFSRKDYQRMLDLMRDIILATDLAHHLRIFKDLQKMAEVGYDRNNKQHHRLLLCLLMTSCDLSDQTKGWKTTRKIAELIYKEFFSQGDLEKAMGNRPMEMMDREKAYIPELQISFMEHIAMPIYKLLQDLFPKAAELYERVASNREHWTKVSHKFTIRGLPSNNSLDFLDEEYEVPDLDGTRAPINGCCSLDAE

Structure (SMILES): COc1cc2c(cc1OC1CCCC1)CN(S(=O)(=O)c1ccc(NC(C)=O)cc1)CC2
IC50 [1]: > 100 µM
IC50 [2]: > 100 µM
inhibition [3]: 3%
inhibition [4]: 7%
inhibition [5]: 11%
inhibition [6]: 4%
inhibition [7]: 2%
inhibition [8]: 8%
inhibition [9]: 10%
inhibition [10]: 4%
inhibition [11]: 10%
inhibition [12]: 3%
inhibition in vivo at 10 mg/kg (Rattus norvegicus): 37.1%
inhibition in vivo at 10 mg/kg (Mus musculus): 44.3%
IC50 [13]: 5.75 µM
IC50 [14]: 11.6 µM
IC50 [15]: 0.95 µM
IC50 [16]: > 100 µM
IC50 [17]: > 100 µM
IC50 [18]: > 100 µM
IC50 [19]: > 100 µM
IC50 [20]: > 100 µM
IC50 [21]: > 100 µM
IC50 [22]: > 100 µM
IC50 [23]: > 100 µM

Structure (SMILES): COc1cccc(C(=O)N2CCc3cc(OC)c(OC4CCCC4)cc3C2)c1
IC50 [15]: 19.7 µM

Structure (SMILES): COc1cc2c(cc1OC1CCCC1)CN(C(=O)c1ccc(OC(F)(F)F)cc1)CC2
IC50 [13]: 9.85 µM
IC50 [14]: 6.5 µM
IC50 [15]: 1.05 µM

Structure (SMILES): CNC(=O)C1Cc2cc(OC)c(OC3CCCC3)cc2CN1C(=O)c1ccc(OC(F)(F)F)cc1 (centres undefined)
IC50 [15]: 16.4 µM

Structure (SMILES): COC(=O)C1Cc2cc(OC)c(OC3CCCC3)cc2CN1C(=O)c1ccc(OC(F)(F)F)cc1 (centres undefined)
IC50 [1]: > 100 µM
IC50 [2]: > 100 µM
inhibition [3]: 3%
inhibition [4]: 6%
inhibition [5]: 13%
inhibition [6]: 6%
inhibition [7]: 2%
inhibition [8]: 7%
inhibition [9]: 12%
remaining at 4 h [24]: 72.8%
inhibition [10]: 5%
inhibition [11]: 9%
inhibition [12]: 4%
Ratio IC50 (Homo sapiens [26]): 21
Ratio IC50 (Homo sapiens [27]): 5
remaining at 8 h [25]: 51.8%
inhibition in vivo at 10 mg/kg (Rattus norvegicus): 45.3%
inhibition in vivo at 10 mg/kg (Mus musculus): 50.2%
IC50 [13]: 2.12 µM
IC50 [14]: 18.4 µM
IC50 [15]: 0.88 µM
IC50 [16]: > 100 µM
IC50 [17]: > 100 µM
IC50 [18]: > 100 µM
IC50 [19]: > 100 µM
IC50 [20]: > 100 µM
IC50 [21]: > 100 µM
IC50 [22]: > 100 µM
IC50 [23]: > 100 µM

Structure (SMILES): COc1cc2c(cc1OC1CCCC1)CN(C(=O)c1cccc(Cl)c1)CC2
IC50 [15]: 20.5 µM

Structure (SMILES): COc1ccc(C2CNC(=O)C2)cc1OC1CCCC1 (centres undefined) [ROLIPRAM]
inhibition in vivo at 10 mg/kg (Rattus norvegicus): 32.5%
inhibition in vivo at 10 mg/kg (Mus musculus): 41.2%

Structure (SMILES): COc1ccc(S(=O)(=O)N2CCc3cc(OC)c(OC4CCCC4)cc3C2)cc1
IC50 [13]: 29.7 µM
IC50 [14]: 43.6 µM
IC50 [15]: 3.1 µM

Structure (SMILES): COc1ccc(C(=O)N2CCc3cc(OC)c(OC4CCCC4)cc3C2)cc1O
IC50 [13]: 36.6 µM
IC50 [14]: 18.6 µM
IC50 [15]: 3.42 µM

Structure (SMILES): COc1ccc(C(=O)N2CCc3cc(OC)c(OC4CCCC4)cc3C2)cc1OC
IC50 [13]: 28.6 µM
IC50 [14]: 18.3 µM
IC50 [15]: 2.85 µM

Structure (SMILES): COc1ccc(C(=O)N2CCc3cc(OC)c(OC4CCCC4)cc3C2)cc1
IC50 [13]: 31.3 µM
IC50 [14]: 13.3 µM
IC50 [15]: 2.38 µM

Structure (SMILES): COc1cc2c(cc1OC1CCCC1)CN(C(=O)c1ccc(OC(F)(F)F)cc1)C(C(=O)N(C)C)C2 (centres undefined)
IC50 [15]: 8.05 µM

Now from value to compound, other results behind:

IC50 [15]: > 50 µM
Structure (SMILES): COc1cc2c(cc1OC1CCCC1)CN(C(=O)c1ccc(OC(F)(F)F)cc1)C(C(=O)OC1CCCC1)C2 (centres undefined)

remaining at 4 h [24]: 84.2%
remaining at 8 h [25]: 71.6%
IC50 [15]: > 50 µM
Structure (SMILES): COc1cc2c(cc1OC1CCCC1)CN(C(=O)c1ccc(OC(F)(F)F)cc1)C(C(=O)OCc1ccccc1)C2 (centres undefined)

IC50 [14]: 134 µM
IC50 [15]: 11 µM
Structure (SMILES): COc1cc2c(cc1OC1CCCC1)CN(S(=O)(=O)c1ccc(Cl)cc1)CC2

IC50 [13]: 48.3 µM
IC50 [14]: 16.3 µM
IC50 [15]: 3.25 µM
Structure (SMILES): COc1cc2c(cc1OC1CCCC1)CN(C(=O)c1ccc(O)cc1)CC2

IC50 [14]: 92.6 µM
IC50 [15]: 18.4 µM
Structure (SMILES): COc1cc2c(cc1OC1CCCC1)CN(C(=O)c1ccc(Cl)cc1)CC2

IC50 [13]: 69.3 µM
IC50 [15]: 8.35 µM
Structure (SMILES): COc1cc2c(cc1OC1CCCC1)CN(C(=O)c1ccc(OC(F)(F)F)cc1)C(C(=O)O)C2 (centres undefined)

IC50 [15]: > 50 µM
Structure (SMILES): CCCCCOC(=O)C1Cc2cc(OC)c(OC3CCCC3)cc2CN1C(=O)c1ccc(OC(F)(F)F)cc1 (centres undefined)

IC50 [15]: 12.7 µM
Structure (SMILES): CCN(CC)C(=O)C1Cc2cc(OC)c(OC3CCCC3)cc2CN1C(=O)c1ccc(OC(F)(F)F)cc1 (centres undefined)

IC50 [13]: 1.21 µM
Structure (SMILES): O=C(Nc1c(Cl)cncc1Cl)c1ccc(OC(F)F)c(OCC2CC2)c1 [ROFLUMILAST]
inhibition in vivo at 10 mg/kg (Rattus norvegicus): 97.6%
inhibition in vivo at 10 mg/kg (Mus musculus): 98.8%

remaining at 4 h [24]: 73.7%
Ratio IC50 (Homo sapiens [26]): 21
remaining at 8 h [25]: 54.9%
IC50 [13]: 12.6 µM
IC50 [14]: 32.7 µM
IC50 [15]: 1.62 µM
Structure (SMILES): CCOC(=O)C1Cc2cc(OC)c(OC3CCCC3)cc2CN1C(=O)c1ccc(OC(F)(F)F)cc1 (centres undefined)
